Consider 16 compounds from patent US12139487B2, “Compounds and uses thereof” (Foghorn Therapeutics Inc., priority 2022, dated 2024).

The assay has as its system BRM-dependent transcription (BRG1 mutant lung cancer cell line A549). Briefly: BRM-dependent transcription, MMTV luciferase reporter in BRG1 mutant A549 cells. It counts as cell-based. As to conditions: Table 11; for IC50: A549-MMTV luciferase reporter, dexamethasone induced, 6 hours; for Ratio (MDA-MMTV IC50 (μM) divided by A549-MMTV IC50 (μM)): MMTV luciferase reporter cell lines, selectivity BRG1/BRM. The method, then: The potential inhibitory effects of compounds on BRG1 and BRM dependent transcription was study by testing the activity of against the BRG1 mutant lung cancer cell line A549 and a MDA cell line with BRM removed by CRISPR. Both cell lines were genetically engineered with a BRG1 or BRM-dependent mouse mammary tumor virus luciferase reporter. Luciferase transcription was induced by dexamethasone in the presence of compound at different concentrations and luminescence was measured using a plate reader 6 hours after stimulation.
On the technique in general: A reporter such as luciferase makes a cellular process visible.

One may read the IC50 as the concentration needed to halve the response being measured. A low value points to greater potency in that assay.

SMILES strings stand for the structures.

In the case of `O=C(NCc1cc2nc(N3CCOc4cc(N5CC(F)(F)C5)cnc43)ccc2cn1)c1cc(F)c2c(c1)S(=O)(=O)[C@@H](F)CCO2` [Compound 353], the “Ratio (MDA-MMTV IC50 (μM) divided by A549-MMTV IC50 (μM))” value is on record as 21.63. This compound also yielded a half-maximal inhibitory concentration (IC50) (Homo sapiens, A549, 6 h) of 15.5 nM.
With `O=C(NCc1cc2nc(-c3cccc(C(F)F)n3)ccc2cn1)c1cc(F)c2c(c1)S(=O)(=O)[C@@H](F)CCO2` [Compound 334], the “Ratio (MDA-MMTV IC50 (μM) divided by A549-MMTV IC50 (μM))” value is recorded as 26.38. Also, inhibition (Homo sapiens, A549, 6 h) was half-maximal at 19 nM (IC50).
For `C[C@@H]1CN(c2cccc(-c3ccc4cnc(CNC(=O)c5cc(C#N)c6c(c5)S(=O)(=O)[C@@H](F)CCO6)cc4n3)n2)C[C@H](C)O1` [Compound 372], the “Ratio (MDA-MMTV IC50 (μM) divided by A549-MMTV IC50 (μM))” value is given as 21.84. The IC50 (Homo sapiens, A549, 6 h) is 7.6 nM.
With `COCCCOc1cnc2c(c1)OCCN2c1ccc2cnc(CNC(=O)c3cc(C(F)F)c4c(c3)S(=O)(=O)[C@@H](F)COC4)cc2n1` [Compound 494], the “Ratio (MDA-MMTV IC50 (μM) divided by A549-MMTV IC50 (μM))” value came to 28.82. The compound also returned an IC50 (Homo sapiens, A549, 6 h) of 5.7 nM.
In the case of `O=C(NCc1cc2nc(N3CCOc4ccc(C(F)F)nc43)ccc2cn1)c1cc(Br)c2c(c1)S(=O)(=O)[C@@H](F)CCO2` [Compound 435], the “Ratio (MDA-MMTV IC50 (μM) divided by A549-MMTV IC50 (μM))” value worked out at 25.82. For the setting “Homo sapiens, A549, 6 h”, this compound registered an IC50 of 23 nM.
For `CCOc1nc(C(C)(F)F)ccc1-c1ccc2cnc(CNC(=O)c3cc(F)c4c(c3)S(=O)(=O)[C@@H](F)COC4)cc2n1` [Compound 509], half-maximal inhibition (IC50) required 20.2 nM and the “Ratio (MDA-MMTV IC50 (μM) divided by A549-MMTV IC50 (μM))” value came out at 25.33.
`O=C(NCc1cc2nc(-c3ccc([C@H](F)C(F)F)c(C4CC4)n3)ccc2cn1)c1cc(Cl)c2c(c1)S(=O)(=O)[C@@H](F)COC2` [Compound 491]: the “Ratio (MDA-MMTV IC50 (μM) divided by A549-MMTV IC50 (μM))” value is 23.59. The compound further registered a half-maximal inhibitory concentration (IC50) (Homo sapiens, A549, 6 h) of 18.2 nM.
Consider `O=C(NCc1cc2nc(-c3cccc(C4CC4)n3)ccc2cn1)c1ccc2c(c1)S(=O)(=O)[C@@H](F)CCOC2` [Compound 364], for which the “Ratio (MDA-MMTV IC50 (μM) divided by A549-MMTV IC50 (μM))” value is reported as 22.21. Further, under “Homo sapiens, A549, 6 h”, the IC50 was 1.9 nM.
On to `O=C(NCc1cc2nc(-c3cccc(OC(F)(F)F)n3)ccc2cn1)c1cc(F)c2c(c1)S(=O)(=O)[C@@H](F)CCO2` [Compound 361], for which the “Ratio (MDA-MMTV IC50 (μM) divided by A549-MMTV IC50 (μM))” value is 22.13. Besides, half-maximal inhibition (Homo sapiens, A549, 6 h) (IC50) was put at 17.9 nM.
As for `O=C(NCc1cc2nc(-c3cccc(OC(F)F)c3)ccc2cn1)c1cc(F)c2c(c1)S(=O)(=O)[C@@H](F)CCO2` [Compound 342], the “Ratio (MDA-MMTV IC50 (μM) divided by A549-MMTV IC50 (μM))” value is on record as 23.62. This compound also came in with a concentration for half-maximal inhibition (IC50) (Homo sapiens, A549, 6 h) of 17.9 nM.
For `COCCOc1nn(-c2ccc3cnc(CNC(=O)c4cc(Cl)c5c(c4)S(=O)(=O)[C@@H](F)COC5)cc3n2)cc1F` [Compound 512], the “Ratio (MDA-MMTV IC50 (μM) divided by A549-MMTV IC50 (μM))” value is listed as 23.26. For the setting “Homo sapiens, A549, 6 h”, this compound gave an IC50 of 10 nM.
For `CCOc1nc([C@@H](F)CF)ccc1-c1ccc2cnc(CNC(=O)c3cc(C(F)F)c4c(c3)S(=O)(=O)[C@@H](F)COC4)cc2n1` [Compound 457], half-maximal inhibition (IC50) was put at 7.2 nM and the “Ratio (MDA-MMTV IC50 (μM) divided by A549-MMTV IC50 (μM))” value is given as 33.28.
Turning to `CCOc1nc(C(C)(F)F)ccc1-c1ccc2cnc(CNC(=O)c3cc(F)c4c(c3)S(=O)(=O)[C@@H](F)COC4)cc2n1` [Compound 468], the concentration for half-maximal inhibition (IC50) amounted to 4.2 nM and the “Ratio (MDA-MMTV IC50 (μM) divided by A549-MMTV IC50 (μM))” value worked out at 25.28.
As to `COCCOc1cnc2c(c1)OCCN2c1ccc2cnc(CNC(=O)c3cc(Br)c4c(c3)S(=O)(=O)[C@@H](F)CCO4)cc2n1` [Compound 424], the “Ratio (MDA-MMTV IC50 (μM) divided by A549-MMTV IC50 (μM))” value was 31.82. This compound also registered an IC50 (Homo sapiens, A549, 6 h) of 23.7 nM.
The like results for `COc1ccc(-c2ccc3cnc(CNC(=O)c4cc(Cl)c5c(c4)S(=O)(=O)[C@@H](F)CCO5)cc3n2)nc1C1CC1(F)F` (some centres unmarked) [Compound 369] were, in that order, 26.85 and 17.1 nM.
In the case of `COCCOc1cnc2c(c1)CCCN2c1ccc2cnc(CNC(=O)c3cc(Br)c4c(c3)S(=O)(=O)[C@@H](F)COC4)cc2n1` [Compound 427], the “Ratio (MDA-MMTV IC50 (μM) divided by A549-MMTV IC50 (μM))” value is reported as 32.84. The compound further registered an IC50 (Homo sapiens, A549, 6 h) of 20.6 nM.
